Assay in all cases: NCI-60 cell line screen, 48 h
Test [1] has as its system MDA-MB-435.
The test system of test [2] is T-47D breast.
In test [3] the test system is NCI/ADR-RES ovarian.
Test [4] concerns BT-549 breast.
In test [5] the test system is DU-145 prostate.

Values joined by “and” are separate entries in the source; they are usually repeats but may differ in a detail not shown here. Identical values can stand only once.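 The compound was tested at five concentrations on cells cultured in 96-well plates, with a 48-hour exposure period. At the GI50, growth is halved. TGI denotes the concentration required for complete inhibition of growth.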

`CC(=O)OC1CC(C)c2c1ncnc2N1CCN(C(=O)OC(C)(C)C)CC1` (centres undefined): the GI50 in test [1] was 19.8 µM; in test [2], 54 µM; in test [3], 67.6 µM; in test [4] it was 61 µM; in test [5], 31.9 µM. For the same compound, the TGI is 41 µM in test [1]; > 100 µM in test [2]; > 100 µM in test [3]; > 100 µM in test [4]; 86.9 µM in test [5].

In the case of `COc1cc2c3c(n(CCCn4cccn4)c(=O)c2cc1OC)-c1cc2c(cc1C3=O)OCO2`, the GI50 in test [1] is 6.23 µM; in test [2] it was 2.2 µM; in test [3] it was 1.3 µM; in test [4], 3.4 µM; in test [5], 0.437 µM. Moreover, the TGI was 39.2 µM in test [1]; > 100 µM in test [2]; 16.5 µM in test [3]; > 70 µM in test [4]; 5.57 µM in test [5].

As to `CCCCCCCCCCCCCCCC[N+](C)(C)C`, the GI50 in test [1] is 0.241 µM; in test [2] it was 0.272 µM and 2.56 µM; in test [3], 1.6 µM and 11.9 µM; in test [4] it was 0.267 µM; in test [5], 0.233 µM and 1.4 µM. The TGI in test [1] was 0.761 µM; in test [2], 1.2 µM and 9.59 µM; in test [3], 6.53 µM and 31.6 µM; in test [4] it was 0.873 µM; in test [5], 0.665 µM and 2.91 µM.

`CNC1=C(Br)C(=O)C2=C(C1=O)C1C3=C(C(=O)C=CC3=O)C2c2ccccc21` (centres undefined): the GI50 in test [1] is 6.59 µM; in test [2] it was 2.9 µM; in test [3], 4.68 µM; in test [4] it was 2.45 µM; in test [5], 4.06 µM. In addition, the TGI in test [1] is 14.7 µM; in test [2], > 40.3 µM; in test [3], 13.4 µM; in test [4], 5.98 µM; in test [5] it was 10.3 µM.

As to `O=C(Oc1ccccc1Cl)c1cccnc1Nc1ccnc(C(F)(F)F)c1`, the GI50 in test [1] was 4.53 µM; in test [2] it was 29.4 µM; in test [3], 16.5 µM; in test [4], 5.12 µM; in test [5], 15.7 µM. The TGI in test [1] was 18.3 µM; in test [2], > 100 µM; in test [3], 62.8 µM; in test [4] it was 22.4 µM; in test [5], 30.4 µM.

Take `S=C(S)NCCCn1ccnc1`: the TGI in test [1], in test [2], in test [3], in test [4] and in test [5] was > 100 µM in each case.

For the compound `CO/N=C(\COc1ccc2c(=O)cc(-c3ccccc3)oc2c1)c1ccc(OC)cc1`, the GI50 in test [1] was 30 µM; in test [2], 53.5 µM; in test [3], > 100 µM; in test [4] it was > 100 µM; in test [5], > 100 µM. In addition, the TGI in test [1], in test [2], in test [3], in test [4] and in test [5] was > 100 µM in each case.

Consider `C=C(C)[C@@H]1CC[C@]2(c3ncc(C)o3)CC[C@]3(C)[C@H](CC[C@@H]4[C@@](C)(CCC#N)[C@H](C(=C)C)CC[C@]43C)[C@@H]12`, for which the GI50 in test [1] is 4.87 µM; in test [2], 3.19 µM; in test [3] it was 3.33 µM; in test [4], 14.4 µM; in test [5], 3.54 µM. The TGI was determined as 18 µM in test [1]; 15 µM in test [2]; 11.9 µM in test [3]; 29.2 µM in test [4]; 13.2 µM in test [5].

On to `CCCCn1c(=O)c(/C=C/C(=O)/C=C/c2ccc(O)c(OC)c2)cc2ccc(Cl)cc21`, for which the GI50 in test [1] is 1.77 µM; in test [2], 1.85 µM; in test [3], 2.9 µM; in test [4], 1.76 µM; in test [5], 1.79 µM. Besides, the TGI in test [1] amounted to 4.17 µM; in test [2] it was 6.28 µM; in test [3], 10.7 µM; in test [4], 4.25 µM; in test [5], 3.92 µM.

With `COc1ccc(-n2nc(C)c3c(Nc4ccc(NC(=O)Nc5cc(C(F)(F)F)ccc5F)cc4)ncnc32)cc1`, the GI50 is 2.44 µM in test [1]; 2.57 µM in test [2]; 2.93 µM in test [3]; 2.49 µM in test [4]; 3.65 µM in test [5]. Further, the TGI in test [1] was 6.51 µM; in test [2] it was 8.72 µM; in test [3], 11.9 µM; in test [4], 7.67 µM; in test [5], > 100 µM.

For `CN1CCN(c2ccc(NC3=C(Cl)C(=O)c4ncccc4C3=O)cc2C(F)(F)F)CC1`, the GI50 was 1.79 µM in test [1]; 1.33 µM in test [2]; 2.46 µM in test [3]; 13 µM in test [4]; 1.91 µM in test [5]. The TGI in test [1] turned out to be 3.3 µM; in test [2] it was 5.31 µM; in test [3], 7.47 µM; in test [4] it was 26.3 µM; in test [5], 3.71 µM.

As to `Cc1ccc2nc(NC(=O)CSC(=S)N3CCN(Cc4ccccc4)CC3)sc2c1`, the GI50 in test [1] was > 100 µM; in test [2], 72.3 µM; in test [3], > 100 µM; in test [4], > 100 µM; in test [5], > 100 µM. Also, the TGI in test [1], in test [2], in test [3], in test [4] and in test [5] was > 100 µM in each case.

As for `CCN(CCc1ccc(F)cc1)c1ccc(CO)c(Cl)c1`, the GI50 is 15.6 µM in test [1]; 1.39 µM in test [2]; 11.8 µM in test [3]; 11.4 µM in test [4]; 14.4 µM in test [5]. In addition, the TGI in test [1] came to 31.8 µM; in test [2], 12.7 µM; in test [3] it was 28.1 µM; in test [4] it was 23.8 µM; in test [5], 29.2 µM.

On to `O=C(O)C1(C(=O)O)CCN(S(=O)(=O)c2ccccc2)CC1`, for which the TGI in test [1], in test [2], in test [3], in test [4] and in test [5] was > 100 µM in each case.

In the case of `COc1cc(C)c(N(C)C(=O)CN(C)C)cc1Nc1nc(Nc2cccc(F)c2C(N)=O)c2cc[nH]c2n1`, the GI50 was > 25 µM in test [1]; > 25 µM in test [2]; > 25 µM in test [3]; 18.4 µM in test [4]; > 25 µM in test [5]. Further, the TGI in test [1], in test [2], in test [3], in test [4] and in test [5] was > 25 µM in each case.

Regarding `CCOc1ccc2c(-c3ccnc(Nc4cccc(C(F)(F)F)c4)n3)cnn2n1`, the GI50 in test [1] was 9.93 µM; in test [2], 1.4 µM; in test [3], 9.04 µM; in test [4], > 23.8 µM; in test [5], > 19.5 µM. Besides, the TGI in test [1], in test [2], in test [3], in test [4] and in test [5] was > 25 µM in each case.

Take `COc1cccc2c1C(=O)c1c(O)c3c(c(O)c1C2=O)C[C@@](O)(C(=O)COC(=O)c1cccnc1)C[C@@H]3OC1CC(N)C(O)C(C)O1` (some centres undefined): the GI50 in test [1] was 0.217 µM; in test [2], 0.0982 µM; in test [3], 3.95 µM; in test [4], 0.193 µM; in test [5], 0.223 µM. For the same compound, the TGI is 1 µM in test [1]; 2.64 µM in test [2]; > 100 µM in test [3]; 1.02 µM in test [4]; 14.1 µM in test [5].

As to `C=C(C)[C@@H]1CC[C@]2(C)[C@H](CC=C3[C@@H]4CC(C)(C)CC[C@]4(C(=O)OC)CC[C@]32C)[C@@]1(C)CC/C(N)=N/O`, the GI50 in test [1] was 1.78 µM; in test [2], 2.46 µM; in test [3] it was 2.09 µM; in test [4], 1.93 µM; in test [5] it was 1.95 µM. The TGI in test [1] was 3.65 µM; in test [2] it was 9.77 µM; in test [3] it was 5.42 µM; in test [4], 4.12 µM; in test [5], 4.28 µM.

Consider `c1ccc(CN2CCC3(CC2)ONC2=NCCN23)cc1`, for which the GI50 was 91.5 µM in test [1]; > 100 µM in test [2]; 18.2 µM in test [3]; > 100 µM in test [4]; > 100 µM in test [5]. Besides, the TGI in test [1], in test [2], in test [3], in test [4] and in test [5] was > 100 µM each time.

On to `CC(C)(C)OC(=O)N(CCCn1c2c(c3ccccc3c1=O)C(=O)c1ccccc1-2)CCN(CCCn1c2c(c3ccccc3c1=O)C(=O)c1ccccc1-2)C(=O)OC(C)(C)C`, for which the GI50 in test [1], in test [2], in test [3], in test [4] and in test [5] was > 50 µM each time. In addition, the TGI in test [1], in test [2], in test [3], in test [4] and in test [5] was > 50 µM throughout.

On to `COc1ccc(CNCCCN2C(=O)c3ccc4c5c(ccc(c35)C2=O)C(=O)N(CCCNCCCCNCCCN)C4=O)c(OC)c1OC`, for which the GI50 in test [1] was 1.17 µM; in test [2], 0.335 µM; in test [3] it was 6.01 µM; in test [4] it was 6.13 µM; in test [5] it was 1.55 µM. Further, the TGI in test [1] stood at 6.57 µM; in test [2], 1.88 µM; in test [3], 49.7 µM; in test [4] it was 21.5 µM; in test [5], 3.44 µM.

In the case of `COc1ccccc1NC(=O)N/C(N)=N/c1nc2ccccc2s1`, the GI50 in test [1] was 0.0211 µM; in test [2] it was 0.394 µM; in test [3] it was 0.0474 µM; in test [4], 0.334 µM; in test [5] it was 0.159 µM. Further, the TGI in test [1] was 0.0692 µM; in test [2], > 100 µM; in test [4], > 100 µM; in test [5], > 100 µM.

As for `COc1ccc(S(=O)(=O)N2CCCCC2)cc1NC(=O)c1[nH]c(C)c2c1CCCCC2=O`, the GI50 in test [1] is 2.49 µM; in test [2], 1.41 µM; in test [3] it was 3.67 µM; in test [4], 4 µM; in test [5], 7.56 µM. Besides, the TGI in test [1] is > 100 µM; in test [2] it was 46.9 µM; in test [3] it was > 100 µM; in test [4] it was > 100 µM; in test [5], > 100 µM.

Take `Cc1occc1C(=S)Nc1ccc(Cl)c(C(=O)OCC2CC2)c1`: the TGI in test [1] was > 100 µM; in test [2] it was > 100 µM; in test [3], > 100 µM; in test [4], 81.5 µM; in test [5], > 100 µM.

On to `CN1CCN(c2ccc3nc(-c4ccc5nc(-c6ccc(C(F)(F)F)cc6)[nH]c5c4)[nH]c3c2)CC1`, for which the GI50 in test [1] is 1.66 µM; in test [2] it was 1.38 µM; in test [3], 25.7 µM; in test [4], 5.91 µM; in test [5], 1.76 µM. The TGI in test [1] is 3.1 µM; in test [2], 3.33 µM; in test [3], > 100 µM; in test [4], 22.5 µM; in test [5], 3.25 µM.

With `C[C@]1(O)CC(=O)[C@]2(O)C3=C(C=C[C@]2(O)C1)C(=O)c1c(O)cccc1C3=O`, the GI50 was 1.85 µM in test [1]; 1.85 µM in test [2]; 5.84 µM in test [3]; 2.62 µM in test [4]; 1.75 µM in test [5]. Also, the TGI in test [1] is 3.44 µM; in test [2], 4.57 µM; in test [3], 40.3 µM; in test [4], 9.44 µM; in test [5], 3.24 µM.

On to `CC(C)NCCCNC1=C(Cl)C(=O)c2ccccc2C1=O`, for which the GI50 in test [1] was 2.1 µM; in test [2], 8.02 µM; in test [3], 12 µM; in test [4], 5.36 µM; in test [5], 1.98 µM. Besides, the TGI came out at 4.07 µM in test [1]; 33.8 µM in test [2]; 28.6 µM in test [3]; 18.2 µM in test [4]; 3.49 µM in test [5].

These data come from PubChem BioAssay (NCI).
